US20260217687A1 (NeoPhore Limited, priority 2023, published 2026)

These compounds were tested against T1, recombinant N-terminal MLH1 (residues 15-340) (Homo sapiens, UniProt P40692) (assay: Fluorescence Polarisation Assay for MLH1). Conditions: 100 nM N-terminal MLH1, 5 nM probe compound.
T1 construct: recombinant N-terminal MLH1 (residues 15-340)
T1 sequence (P40692 15-340): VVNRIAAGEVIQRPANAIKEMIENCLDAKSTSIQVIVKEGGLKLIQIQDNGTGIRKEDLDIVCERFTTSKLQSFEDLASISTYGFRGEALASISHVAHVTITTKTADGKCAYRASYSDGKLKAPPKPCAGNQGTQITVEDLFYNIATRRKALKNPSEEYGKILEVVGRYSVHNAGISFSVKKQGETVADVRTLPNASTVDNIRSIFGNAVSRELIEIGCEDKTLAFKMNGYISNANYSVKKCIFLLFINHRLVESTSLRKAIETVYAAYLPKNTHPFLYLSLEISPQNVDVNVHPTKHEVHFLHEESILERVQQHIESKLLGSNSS
Assay type: binding
Description: Fluorescence Polarisation Assay for MLH1
Test compounds, as 10 mM DMSO stocks, were dispensed into a 384-well Low Flange Black Flat Bottom Polystyrene Non-binding Surface plate (Corning®, item number 3575) using a Labcyte Echo acoustic liquid handler. […] 20 μL of a 2× solution (200 nM) of recombinant N-terminal MLH1 (residues 15-340) in assay buffer (25 mM HEPES, pH 7.5, 250 mM NaCl, 10 mM MgCl2, 0.01% Triton X-100, 5 mM Dithiothreitol) was added to all wells in columns 1-23 and 20 μL assay buffer was added to all wells in column 24 using an E1-ClipTip pipette (ThermoFisher). Plates were centrifuged for 1 minute at 250 xg and were incubated at room temperature for 30 minutes prior to the addition of 20 μL of 2×(10 nM) of 5-((5-(4-((2-(2-(Benzyloxy)-4,6-dihydroxybenzoyl)isoindolin-5-yl)methyl)piperazin-1-yl)pentyl)carbamoyl)-2-(6-(dimethylamino)-3-(dimethyliminio)-3H-xanthen-9-yl)benzoate (referred to hereinafter as “probe compound”) in assay buffer (prepared from a 1 mM DMSO stock) with an E1-ClipTip pipette (ThermoFisher). The final concentration of N-terminal MLH1 was 100 nM and the final concentration of the probe compound was 5 nM. Compound plates were centrifuged for 1 minute at 250 xg for 1 minute and immediately read on a PheraStar FSX (fitted with 384-well aperture spoon and 590 675 675 FP optic module). The gain and focus were adjusted before each plate was read so that the polarisation of a no enzyme control (column 24) was equal to 35 mP. Data were normalised against the no inhibitor controls (column 23) and no enzyme controls (column 24).

Structure (SMILES) | IC50
CN1CC[C@@H](Oc2ccc3c(c2)CN(C(=O)c2c(O)cc(C#N)cc2OCc2ccccc2)C3)C1 [Example 10.30, (R)-3-(Benzyloxy)-5-hydroxy-4-(5-((1-methylpyrrolidin-3-yl)oxy)isoindoline-2-carbonyl)benzonitrile] | 0.1 to 1 µM
CN(C)Cc1ccc2c(n1)CN(C(=O)c1c(O)cc(Cl)cc1OCc1ccccc1)C2 [Example 10.21] | 1 to 10 µM
CN1CC[C@H](Nc2cccc3c2CN(C(=O)c2c(O)cc(C(F)F)cc2OCc2ccccc2)C3)C1=O [Example 4.12, (S)-3-((2-(2-(Benzyloxy)-4-(difluoromethyl)-6-hydroxybenzoyl)isoindolin-4-yl)amino)-1-methylpyrrolidin-2-one] | 0.1 to 1 µM
COc1ccc2c(c1)CN(C(=O)c1c(O)cc(C(F)F)cc1OCc1ccccc1)CC2 [Example 4.38, (2-(Benzyloxy)-4-(difluoromethyl)-6-hydroxyphenyl)(7-methoxy-3,4-dihydroisoquinolin-2(1H)-yl)methanone] | 1 to 10 µM
CN1CC[C@@H](Oc2ccc3c(c2)CN(C(=O)c2c(O)cc(C(F)F)cc2OCc2ccccc2)C3)C1 [Example 4.55, (R)-(2-(Benzyloxy)-4-(difluoromethyl)-6-hydroxyphenyl)(5-((1-methylpyrrolidin-3-yl)oxy)isoindolin-2-yl)methanone] | < 0.1 µM
CN1CC[C@H](Nc2cccc3c2CN(C(=O)c2c(O)cc(C#N)cc2OCc2ccccc2)C3)C1=O [Example 10.27, (S)-3-(Benzyloxy)-5-hydroxy-4-(4-((1-methyl-2-oxopyrrolidin-3-yl)amino)isoindoline-2-carbonyl)benzonitrile] | 0.1 to 1 µM
N#Cc1cc(O)c(C(=O)N2Cc3cccc(NC4COC4)c3C2)c(OCc2ccccn2)c1 [Example 10.38, 3-Hydroxy-4-(4-(oxetan-3-ylamino)isoindoline-2-carbonyl)-5-(pyridin-2-ylmethoxy)benzonitrile] | 1 to 10 µM
CN1CC(Nc2cccc3c2CN(C(=O)c2c(O)cc(C#N)cc2OCc2ccccc2)C3)CC1=O (centres unmarked) [Example 10.3, 3-(Benzyloxy)-5-hydroxy-4-(4-((1-methyl-5-oxopyrrolidin-3-yl)amino)isoindoline-2-carbonyl)benzonitrile] | 0.1 to 1 µM
O=C(c1c(O)cc(C(F)F)cc1OCc1ccccc1)N1CCc2ncccc21 [Example 27.22, (2-(Benzyloxy)-4-(difluoromethyl)-6-hydroxyphenyl)(2,3-dihydro-1H-pyrrolo[3,2-b]pyridin-1-yl)methanone] | 1 to 10 µM
O=C(c1c(O)cc(C(F)F)cc1OCc1ccccc1)N1CCc2cccnc21 [Example 27.15, (2-(Benzyloxy)-4-(difluoromethyl)-6-hydroxyphenyl)(2,3-dihydro-1H-pyrrolo[2,3-b]pyridin-1-yl)methanone] | 1 to 10 µM
CN(C)CCOc1cc2c(c(N[C@H]3CCOC3)c1)CN(C(=O)c1c(O)cc(C(F)F)cc1OCc1ccccc1)C2 [Example 4.76] | < 0.1 µM
CN1CC[C@@H](Oc2ccc3c(c2)CCN(C(=O)c2c(O)cc(C(F)F)cc2OCc2ccccc2)C3)C1 [Example 4.65, (R)-(2-(Benzyloxy)-4-(difluoromethyl)-6-hydroxyphenyl)(6-((1-methylpyrrolidin-3-yl)oxy)-3,4-dihydroisoquinolin-2(1H)yl)methanone] | 0.1 to 1 µM
COc1cc2c(c(N[C@@H]3CCOC3)c1)CN(C(=O)c1c(O)cc(Cl)cc1OCc1ccccc1)C2 [Example 10.1, (R)-(2-(Benzyloxy)-4-chloro-6-hydroxyphenyl)(6-methoxy-4-((tetrahydrofuran-3-yl)amino)isoindolin-2-yl)methanone] | 1 to 10 µM
CC(=O)N1CCC[C@H](Nc2cccc3c2CN(C(=O)c2c(O)cc(C#N)cc2OCc2ccccc2)C3)C1 [Example 10.18, (S)-4-(4-((1-Acetylpiperidin-3-yl)amino)isoindoline-2-carbonyl)-3-(benzyloxy)-5-hydroxybenzonitrile] | 0.1 to 1 µM
